Converted amounts (≈) assume the structure as drawn. Blank lines part the entries; values can stand above or below the molecule they belong to.
How the values were obtained:
[1] = AUC (0 to last) in C57BL/6J mouse at 50 mg/kg, po by LC/MS/MS analysis; assay type: ADME, organism-based; parameters: dose 50 mg/kg, time 0 - last, route oral; settings: in vivo
[2] = Cmax in C57BL/6J mouse at 5 mg/kg, po by LC/MS/MS analysis; assay type: ADME, organism-based; parameters: dose 5 mg/kg, route oral; settings: in vivo
[3] = AUC (0 to last) in C57BL/6J mouse at 5 mg/kg, po by LC/MS/MS analysis; assay type: ADME, organism-based; parameters: dose 5 mg/kg, time 0 - last, route oral; settings: in vivo
[4] = Solubility of compound in fasted-state simulated intestinal fluid; assay type: ADME
[5] = Tmax in C57BL/6J mouse at 5 mg/kg, po by LC/MS/MS analysis; assay type: ADME, organism-based; settings: in vivo
[6] = Oral bioavailability in C57BL/6J mouse at 5 mg/kg by LC/MS/MS analysis; assay type: ADME, organism-based; settings: in vivo
[7] = Oral bioavailability in C57BL/6J mouse at 50 mg/kg by LC/MS/MS analysis; assay type: ADME, organism-based; settings: in vivo
[8] = Clearance in Wistar/Han rat at 1 mg/kg, iv administered as single bolus dose; assay type: ADME, organism-based; settings: in vivo
[9] = Kinetic solubility of compound by LYSA; assay type: physicochemical; settings: read-out: Kinetic_solubility
[10] = Volume of distribution at steady state in C57BL/6J mouse at 1 mg/kg, iv by LC/MS/MS analysis; assay type: ADME, organism-based; settings: in vivo, read-out: Vdss
[11] = Cmax in C57BL/6J mouse at 50 mg/kg, po by LC/MS/MS analysis; assay type: ADME, organism-based; parameters: dose 50 mg/kg, route oral; settings: in vivo
[12] = AUC (0 to last) in C57BL/6J mouse at 1 mg/kg, iv by LC/MS/MS analysis; assay type: ADME, organism-based; parameters: dose 1 mg/kg, route intravenous, time 0 - last; settings: in vivo
[13] = Tmax in C57BL/6J mouse at 50 mg/kg, po by LC/MS/MS analysis; assay type: ADME, organism-based; settings: in vivo
[14] = Solubility of compound in fed-state simulated intestinal fluid; assay type: ADME
[15] = Clearance in C57BL/6J mouse at 1 mg/kg, iv by LC/MS/MS analysis; assay type: ADME, organism-based; settings: in vivo
[16] = Clearance in Wistar/Han rat at 0.5 mg/kg, iv administered as single bolus dose; assay type: ADME, organism-based; settings: in vivo

Compound: CC(C)C1Cc2[nH]c(=O)c3cccnc3c2CO1 (racemic)
solubility kinetic [9]: 13 µg/mL (≈ 53.2 µM)
clearance [16]: 10 mL/min/kg

Compound: O=C(C1COC1)N1CCC(C2Cc3[nH]c(=O)c4ccccc4c3CO2)CC1 (racemic)
solubility kinetic [9]: 13 µg/mL (≈ 35.3 µM)

Compound: CS(=O)(=O)N1CCC(C2Cc3[nH]c(=O)c4ccccc4c3CO2)C1 (racemic)
solubility kinetic [9]: 28 µg/mL (≈ 80.4 µM)
clearance [16]: 47 mL/min/kg

Compound: Cc1cccc2c(=O)[nH]c3c(c12)COC(C(C)C)C3 (racemic)
solubility kinetic [9]: < 1 µg/mL
clearance [16]: 20 mL/min/kg

Other lines, results leading:

AUC(0-t) [1]: 27000 ng·h/mL
Cmax [2]: 1600 ng/mL
AUC(0-t) [3]: 1400 ng·h/mL
solubility [4]: 50 µg/mL (≈ 174 µM)
Tmax [5]: 15 min
bioavailability [6]: 49%
bioavailability [7]: 92%
clearance [8]: 25 mL/min/kg
solubility kinetic [9]: 4 µg/mL (≈ 13.9 µM)
Vd [10]: 1.5 L/kg
Cmax [11]: 14000 ng/mL
AUC(0-t) [12]: 600 ng·h/mL
Tmax [13]: 15 min
solubility [14]: 143 µg/mL (≈ 498 µM)
clearance [15]: 28 mL/min/kg
Compound: Cc1cccc2c(=O)[nH]c3c(c12)COC(C(C)(C)CO)C3 (racemic)

solubility kinetic [9]: < 1 µg/mL
clearance [16]: 2 mL/min/kg
Compound: CC(C)(C)C1Cc2[nH]c(=O)c3ccccc3c2CO1 (racemic)

solubility kinetic [9]: 5 µg/mL (≈ 20.6 µM)
clearance [16]: 37 mL/min/kg
Compound: CC(C)C1Cc2[nH]c(=O)c3ccccc3c2CO1 (racemic)

solubility kinetic [9]: 66 µg/mL (≈ 241 µM)
Compound: CC(C)(CO)C1Cc2[nH]c(=O)c3ccccc3c2CO1 (racemic)

— ChEMBL document CHEMBL3734697, “Fragment-Based Drug Design of Novel Pyranopyridones as Cell Active and Orally Bioavailable Tankyrase Inhibitors” (ACS Med Chem Lett, 2015)
